The target in assay [1] is T1, Cytochrome P450 11B1, mitochondrial (Homo sapiens, UniProt P15538).
T1 sequence (P15538 whole entry): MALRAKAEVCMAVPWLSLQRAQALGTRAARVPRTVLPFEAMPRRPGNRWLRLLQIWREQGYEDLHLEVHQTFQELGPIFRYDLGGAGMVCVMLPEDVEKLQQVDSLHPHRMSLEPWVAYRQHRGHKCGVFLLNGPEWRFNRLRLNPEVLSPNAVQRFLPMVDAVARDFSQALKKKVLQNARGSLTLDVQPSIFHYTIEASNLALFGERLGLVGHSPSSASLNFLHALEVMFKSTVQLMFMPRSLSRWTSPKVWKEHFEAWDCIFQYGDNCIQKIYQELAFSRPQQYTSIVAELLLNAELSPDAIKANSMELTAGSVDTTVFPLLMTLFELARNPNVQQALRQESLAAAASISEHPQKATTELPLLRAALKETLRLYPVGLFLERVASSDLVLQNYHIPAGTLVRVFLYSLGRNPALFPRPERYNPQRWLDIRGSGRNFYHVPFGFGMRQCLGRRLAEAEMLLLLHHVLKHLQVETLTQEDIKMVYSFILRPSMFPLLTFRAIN
The assay can be described thus: Inhibition of human CYP11B1 expressed in hamster V79 MZh cells using deoxycorticosterone substrate. In kind it is cell-based.

The species named for assay [2] is Homo sapiens. Kind of assay: Selectivity ratio of IC50 for human placental CYP19 to IC50 for human CYP11B1.
Assay [3] deals with T2, Steroid 17-alpha-hydroxylase/17,20 lyase (Homo sapiens, UniProt P05093).
T2 sequence (P05093 whole entry): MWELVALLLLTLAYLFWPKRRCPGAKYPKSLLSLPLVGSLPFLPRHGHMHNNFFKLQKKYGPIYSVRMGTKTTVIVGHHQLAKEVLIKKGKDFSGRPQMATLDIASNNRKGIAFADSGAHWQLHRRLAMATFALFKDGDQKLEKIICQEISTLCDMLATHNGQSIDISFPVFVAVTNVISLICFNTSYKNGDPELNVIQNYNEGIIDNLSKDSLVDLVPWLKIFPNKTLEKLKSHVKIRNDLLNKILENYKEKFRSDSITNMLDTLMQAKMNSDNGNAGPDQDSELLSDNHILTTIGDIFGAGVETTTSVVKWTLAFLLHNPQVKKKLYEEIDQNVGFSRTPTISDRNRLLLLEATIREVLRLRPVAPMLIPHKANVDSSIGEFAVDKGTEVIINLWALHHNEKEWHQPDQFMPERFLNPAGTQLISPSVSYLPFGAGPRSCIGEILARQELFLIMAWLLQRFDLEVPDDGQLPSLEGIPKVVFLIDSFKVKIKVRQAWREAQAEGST
The assay can be described thus: Inhibition of human CYP17 expressed in Escherichia coli using progesterone substrate.

The target in assay [4] is T3, Aromatase (Homo sapiens, UniProt P11511).
T3 sequence (P11511 whole entry): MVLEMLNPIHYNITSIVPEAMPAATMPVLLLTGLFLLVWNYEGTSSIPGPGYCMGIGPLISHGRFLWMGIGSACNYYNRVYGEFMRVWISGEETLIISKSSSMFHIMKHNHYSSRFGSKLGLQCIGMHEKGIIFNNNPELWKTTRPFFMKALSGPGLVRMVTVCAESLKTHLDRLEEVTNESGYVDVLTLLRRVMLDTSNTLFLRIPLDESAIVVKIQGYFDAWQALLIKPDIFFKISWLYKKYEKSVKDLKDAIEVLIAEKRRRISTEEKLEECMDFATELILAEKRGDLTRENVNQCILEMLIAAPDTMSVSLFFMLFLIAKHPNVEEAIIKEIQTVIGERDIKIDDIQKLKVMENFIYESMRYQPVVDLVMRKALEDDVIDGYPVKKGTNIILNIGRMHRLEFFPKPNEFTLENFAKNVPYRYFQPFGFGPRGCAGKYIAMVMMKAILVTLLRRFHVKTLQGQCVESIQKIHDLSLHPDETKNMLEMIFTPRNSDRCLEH
The assay can be described thus: Inhibition of human placental CYP19 using androstenedione substrate.

The target of assay [5] is T4, Cytochrome P450 11B2, mitochondrial (Homo sapiens, UniProt P19099).
T4 sequence (P19099 whole entry): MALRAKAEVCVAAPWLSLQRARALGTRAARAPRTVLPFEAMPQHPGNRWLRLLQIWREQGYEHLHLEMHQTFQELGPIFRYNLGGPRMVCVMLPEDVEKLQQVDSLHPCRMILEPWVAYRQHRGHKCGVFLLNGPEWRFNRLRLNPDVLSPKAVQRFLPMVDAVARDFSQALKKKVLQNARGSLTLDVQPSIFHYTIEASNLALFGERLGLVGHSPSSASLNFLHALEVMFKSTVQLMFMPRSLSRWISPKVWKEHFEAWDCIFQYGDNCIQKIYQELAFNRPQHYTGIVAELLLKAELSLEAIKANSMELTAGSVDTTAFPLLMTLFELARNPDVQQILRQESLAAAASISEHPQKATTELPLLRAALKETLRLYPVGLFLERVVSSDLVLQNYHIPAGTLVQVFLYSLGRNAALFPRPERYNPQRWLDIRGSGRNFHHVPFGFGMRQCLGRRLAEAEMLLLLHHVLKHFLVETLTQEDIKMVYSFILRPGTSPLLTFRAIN
Kind of assay: Inhibition of human CYP11B2 expressed in hamster V79 MZh cells using deoxycorticosterone substrate. The assay is classed as cell-based.

For assay [6], the species on record is Homo sapiens. Kind of assay: Selectivity ratio of IC50 for human CYP11B2 to IC50 for human CYP11B1.
The species named for assay [7] is Homo sapiens. Kind of assay: Selectivity ratio of IC50 for human CYP17 to IC50 for human CYP11B1.
For assay [8], the target named is T5, Cytochrome P450 11B1, mitochondrial (Rattus norvegicus, UniProt P15393).
T5 sequence (P15393 whole entry): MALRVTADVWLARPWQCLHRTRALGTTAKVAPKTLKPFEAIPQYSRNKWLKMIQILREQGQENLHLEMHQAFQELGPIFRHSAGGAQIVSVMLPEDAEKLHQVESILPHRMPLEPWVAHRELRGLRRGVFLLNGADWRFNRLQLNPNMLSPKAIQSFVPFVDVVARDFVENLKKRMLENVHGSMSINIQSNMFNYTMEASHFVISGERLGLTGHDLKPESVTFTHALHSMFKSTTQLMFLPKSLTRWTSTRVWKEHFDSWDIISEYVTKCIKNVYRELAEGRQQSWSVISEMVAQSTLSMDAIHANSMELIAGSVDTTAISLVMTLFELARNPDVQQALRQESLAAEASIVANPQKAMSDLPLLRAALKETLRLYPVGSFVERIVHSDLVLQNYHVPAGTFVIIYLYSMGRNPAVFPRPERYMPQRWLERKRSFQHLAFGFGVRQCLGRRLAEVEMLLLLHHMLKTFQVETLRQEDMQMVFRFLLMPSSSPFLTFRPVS
The assay can be described thus: Inhibition of rat CYP11B1 at 2 uM.

Where only a bound is given, the exact number is not on record here.

As for `CC(C)C(c1cc2c3c(c1)CCN3C(=O)CC2)n1ccnc1` (configuration not stated), the IC50 (usually the concentration that gives 50% inhibition) is 1.4 nM in assay [1], 1550 nM in assay [3], over 500 nM in assay [4] and 3.8 nM in assay [5]. The figures for the Ratio IC50 in assay [2], in assay [6] and in assay [7] were over 357, 2.7 and 1110, respectively.

In the case of `CC(c1cc2c3c(c1)CCN3C(=O)CC2)(n1ccnc1)n1ccnc1`, the figures for the IC50 in assay [1] and in assay [5] were 438 nM and 851 nM, respectively. Also, in assay [6], the Ratio IC50 was found to be 1.9.

Turning to `O=C1CCc2cc(C(c3ccccc3)n3ccnc3)cc3c2N1CC3` (configuration not stated), the IC50 in assay [1] was determined as 50 nM; in assay [5] it was 33 nM. Also, the Ratio IC50 in assay [6] came out at 0.7.

`O=C1CCc2cc(C(C3CC3)n3ccnc3)cc3c2N1CC3` (stereo in doubt; (+)-4) returned an IC50 in assay [1] of 10.3 nM. That is a double-digit nanomolar value.

Take `C=C(c1cc2c3c(c1)CCN3C(=O)CC2)n1ccnc1`: the IC50 in assay [1] was 19 nM; in assay [3] it was over 5000 nM; in assay [4] it was 17 nM; in assay [5] it was 100 nM. Further, the Ratio IC50 is 0.9 in assay [2], 5.3 in assay [6] and over 260 in assay [7].

For `O=C1CCc2cc(C(C3CC3)n3ccnc3)cc3c2N1CC3` (racemic), the half-maximal inhibitory concentration (IC50) in assay [1] worked out at 2.2 nM; in assay [3], 2880 nM; in assay [4] it was 228 nM; in assay [5] it was 24 nM. Also, in assay [8], the inhibition (commonly the drop in the measured response relative to a control, in per cent) at 2 µM amounted to 91%.

Turning to `COc1cccc(C(c2cc3c4c(c2)CCN4C(=O)CC3)n2ccnc2)c1` (configuration not stated), the results for the half-inhibitory concentration (IC50) in assay [1] and in assay [5] were 110 nM and 88 nM, respectively. In assay [6], the Ratio IC50 was 0.8.

Regarding `O=C1CCc2cc(C(C3CC3)n3ccnc3)cc3c2N1CC3` (single isomer, unassigned; (-)), in assay [1], the concentration for half-maximal inhibition (IC50) came out at 1.5 nM.

Take `O=C1CCc2cc(C(c3ccco3)n3ccnc3)cc3c2N1CC3` (configuration not stated): the concentration for half-maximal inhibition (IC50) is 20 nM in assay [1] and 47 nM in assay [5]. Besides, the Ratio IC50 in assay [6] was 2.4.

`O=C1CCc2cc(C(c3cccc(F)c3)n3ccnc3)cc3c2N1CC3` (configuration not stated): the half-inhibitory concentration (IC50) in assay [1] was 29 nM; in assay [5] it was 18 nM. Besides, the Ratio IC50 in assay [6] stood at 0.6.

In the case of `O=C1CCc2cc(C(c3ccccc3F)n3ccnc3)cc3c2N1CC3` (configuration not stated), the IC50 came to 40 nM in assay [1] and 19 nM in assay [5]. The Ratio IC50 in assay [6] was found to be 0.5.

`CC(c1cc2c3c(c1)CCN3C(=O)CC2)n1ccnc1` (configuration not stated): the IC50 turned out to be 17 nM in assay [1] and 15 nM in assay [5]. For the same molecule, the Ratio IC50 in assay [6] amounted to 0.9.

Take `O=C1CCc2cc(C(C3CCC3)n3ccnc3)cc3c2N1CC3` (configuration not stated): the figures for the IC50 in assay [1] and in assay [5] were 3.4 nM and 4.2 nM, respectively. Also, the Ratio IC50 in assay [6] is 1.2.

In the case of `CCC(c1cc2c3c(c1)CCN3C(=O)CC2)n1ccnc1` (configuration not stated), the values for the half-inhibitory concentration (IC50) in assay [1] and in assay [5] were 6.5 nM and 5.8 nM, respectively. Moreover, in assay [6], the Ratio IC50 amounted to 0.9.

As for `N#Cc1ccc(C(c2cc3c4c(c2)CCN4C(=O)CC3)n2ccnc2)cc1` (configuration not stated), the concentration for half-maximal inhibition (IC50) in assay [1] was determined as 70 nM; in assay [5] it was 308 nM. In assay [6], the Ratio IC50 came out at 4.4.

For `N#Cc1cccc(C(c2cc3c4c(c2)CCN4C(=O)CC3)n2ccnc2)c1` (configuration not stated), the IC50 in assay [1] stood at 144 nM; in assay [5], 304 nM. Further, the Ratio IC50 in assay [6] came out at 2.1.

With `O=C1CCc2cc(C(c3cccs3)n3ccnc3)cc3c2N1CC3` (configuration not stated), the IC50 in assay [1] came out at 13 nM; in assay [5], 18 nM. Moreover, in assay [6], the Ratio IC50 was 1.4.

On to `O=C1CCc2cc(C(c3ccc(F)cc3)n3ccnc3)cc3c2N1CC3` (configuration not stated), for which the results for the IC50 in assay [1] and in assay [5] were 27 nM and 29 nM, respectively. For the same molecule, the Ratio IC50 in assay [6] was found to be 1.1.

Turning to `COc1ccc(C(c2cc3c4c(c2)CCN4C(=O)CC3)n2ccnc2)cc1` (configuration not stated), the IC50 in assay [1] is 40 nM; in assay [3] it was over 5000 nM; in assay [4], 43 nM; in assay [5], 104 nM. Moreover, the Ratio IC50 is 1.1 in assay [2], 2.6 in assay [6] and over 125 in assay [7].
